Results reported in the NIST ThermoML archive (doi:10.1016/j.fluid.2013.11.026).

Tests used:
[1] = xn = mol fraction of the nth substance listed; settings: 101 kPa, Liquid, Vibrating tube method
[2] = excess molar enthalpy (molar enthalpy of mixing); xn = mol fraction of the nth substance listed; settings: 101 kPa, Liquid, Calvet calorimetry
[3] = 101.33 kPa, Liquid, Vibrating tube method
[4] = refractive index (Na D-line) (dimensionless); settings: 101.33 kPa, Liquid, Standard Abbe refractometry

CCCCC [pentane] + CCCCOC=O
[1], x2 = 0
Settings | mass density [kg/m3]
291.15 K | 627.86
298.15 K | 620.89

CCCOC=O [propyl methanoate] + CCCCC
Settings | excess molar enthalpy, [2] [kcal/mol] | mass density, [1] [kg/m3]
291.15 K, x1 = 0.057 | – | 639.86
291.15 K, x1 = 0.0666 | 0.0844 | –
291.15 K, x1 = 0.117 | – | 653.61
291.15 K, x1 = 0.1411 | 0.141 | –
291.15 K, x1 = 0.166 | – | 665.38
291.15 K, x1 = 0.2072 | 0.1824 | –
291.15 K, x1 = 0.26 | – | 688.38
291.15 K, x1 = 0.2696 | 0.2106 | –
291.15 K, x1 = 0.308 | – | 700.63
291.15 K, x1 = 0.3154 | 0.2273 | –
291.15 K, x1 = 0.3689 | 0.2395 | –
291.15 K, x1 = 0.4172 | 0.2433 | –
291.15 K, x1 = 0.448 | – | 737.83
291.15 K, x1 = 0.46 | 0.2431 | –
291.15 K, x1 = 0.4953 | 0.2402 | –
291.15 K, x1 = 0.5199 | 0.238 | –
291.15 K, x1 = 0.537 | – | 763.24
291.15 K, x1 = 0.5543 | 0.2321 | –
291.15 K, x1 = 0.5955 | 0.2218 | –
291.15 K, x1 = 0.631 | 0.2122 | –
291.15 K, x1 = 0.651 | – | 796.41
291.15 K, x1 = 0.678 | 0.1974 | –
291.15 K, x1 = 0.703 | – | 812.04
291.15 K, x1 = 0.7184 | 0.1807 | –
291.15 K, x1 = 0.7665 | 0.1597 | –
291.15 K, x1 = 0.819 | 0.1322 | 848.4
291.15 K, x1 = 0.847 | – | 857.3
291.15 K, x1 = 0.879 | 0.0949 | –
291.15 K, x1 = 0.938 | – | 886.86
291.15 K, x1 = 0.9403 | 0.0528 | –
291.15 K, x1 = 1 | – | 907.97
298.15 K, x1 = 0.042 | 0.0468 | –
298.15 K, x1 = 0.0505 | – | 631.54
298.15 K, x1 = 0.0794 | – | 638.09
298.15 K, x1 = 0.1081 | 0.114 | –
298.15 K, x1 = 0.1375 | – | 651.43
298.15 K, x1 = 0.1456 | 0.158 | –
298.15 K, x1 = 0.2012 | – | 666.5
298.15 K, x1 = 0.2109 | 0.2017 | –
298.15 K, x1 = 0.2525 | – | 679.23
298.15 K, x1 = 0.2706 | 0.2294 | –
298.15 K, x1 = 0.3178 | – | 695.79
298.15 K, x1 = 0.3317 | 0.2495 | –
298.15 K, x1 = 0.3733 | – | 710.12
298.15 K, x1 = 0.3889 | 0.2596 | –
298.15 K, x1 = 0.4303 | – | 725.46
298.15 K, x1 = 0.4431 | 0.2631 | –
298.15 K, x1 = 0.4798 | – | 739.19
298.15 K, x1 = 0.4882 | – | 741.75
298.15 K, x1 = 0.4905 | 0.2627 | –
298.15 K, x1 = 0.5353 | 0.2584 | –
298.15 K, x1 = 0.5467 | – | 758.38
298.15 K, x1 = 0.5637 | 0.2548 | –
298.15 K, x1 = 0.6019 | – | 774.28
298.15 K, x1 = 0.6149 | 0.245 | –
298.15 K, x1 = 0.67 | 0.2326 | –
298.15 K, x1 = 0.6778 | – | 796.75
298.15 K, x1 = 0.7271 | 0.2125 | –
298.15 K, x1 = 0.7597 | – | 822.01
298.15 K, x1 = 0.7888 | 0.1809 | –
298.15 K, x1 = 0.8079 | – | 837.19
298.15 K, x1 = 0.8503 | – | 850.78
298.15 K, x1 = 0.8511 | 0.141 | –
298.15 K, x1 = 0.9096 | 0.0927 | –
298.15 K, x1 = 0.9251 | – | 874.84
298.15 K, x1 = 0.9655 | 0.0442 | –
298.15 K, x1 = 1 | – | 899.86

CCCCOC=O [butyl methanoate]
Settings | mass density, [3] [kg/m3] | refractive index, [4]
291.15 K | 895.86 | 1.3904
298.15 K | 888.47 | 1.3872

CCOC=O [ethyl methanoate]
Settings | mass density, [3] [kg/m3] | refractive index, [4]
291.15 K | 923.4 | 1.3614
298.15 K | 914.35 | 1.358

COC=O [methyl methanoate]
Settings | mass density, [3] [kg/m3] | refractive index, [4]
291.15 K | 977.21 | 1.3452
298.15 K | 966.54 | 1.3415

CCCCOC=O [butyl methanoate] + CCCCC
Settings | excess molar enthalpy [kcal/mol] | mass density [kg/m3]
[1], 291.15 K, x1 = 0.0482 | – | 640.01
[1], 291.15 K, x1 = 0.1029 | – | 654.1
[1], 291.15 K, x1 = 0.1541 | – | 667.59
[1], 291.15 K, x1 = 0.2028 | – | 680.41
[1], 291.15 K, x1 = 0.2999 | – | 706.35
[1], 291.15 K, x1 = 0.3486 | – | 719.53
[1], 291.15 K, x1 = 0.453 | – | 747.88
[1], 291.15 K, x1 = 0.5029 | – | 761.43
[1], 291.15 K, x1 = 0.5974 | – | 786.96
[1], 291.15 K, x1 = 0.7 | – | 814.79
[1], 291.15 K, x1 = 0.8074 | – | 843.81
[1], 291.15 K, x1 = 0.8966 | – | 868.4
[1], 291.15 K, x1 = 0.9452 | – | 881.04
[1], 291.15 K, x1 = 1 | – | 895.86
[1], 298.15 K, x1 = 0.0584 | – | 635.57
[1], 298.15 K, x1 = 0.1147 | – | 650.09
[1], 298.15 K, x1 = 0.1936 | – | 670.91
[1], 298.15 K, x1 = 0.301 | – | 699.46
[1], 298.15 K, x1 = 0.343 | – | 710.8
[1], 298.15 K, x1 = 0.3886 | – | 723.15
[1], 298.15 K, x1 = 0.4521 | – | 740.45
[1], 298.15 K, x1 = 0.4958 | – | 752.3
[1], 298.15 K, x1 = 0.5442 | – | 765.49
[1], 298.15 K, x1 = 0.6477 | – | 793.55
[1], 298.15 K, x1 = 0.7529 | – | 822.18
[1], 298.15 K, x1 = 0.8993 | – | 861.53
[1], 298.15 K, x1 = 1 | – | 888.47
[2], 291.15 K, x1 = 0.0661 | 0.0774 | –
[2], 291.15 K, x1 = 0.1254 | 0.1231 | –
[2], 291.15 K, x1 = 0.1836 | 0.1594 | –
[2], 291.15 K, x1 = 0.2321 | 0.1862 | –
[2], 291.15 K, x1 = 0.2846 | 0.2041 | –
[2], 291.15 K, x1 = 0.3351 | 0.2141 | –
[2], 291.15 K, x1 = 0.3832 | 0.2196 | –
[2], 291.15 K, x1 = 0.4276 | 0.2208 | –
[2], 291.15 K, x1 = 0.4704 | 0.2187 | –
[2], 291.15 K, x1 = 0.5095 | 0.2156 | –
[2], 291.15 K, x1 = 0.5587 | 0.2084 | –
[2], 291.15 K, x1 = 0.6121 | 0.1965 | –
[2], 291.15 K, x1 = 0.6666 | 0.1781 | –
[2], 291.15 K, x1 = 0.7272 | 0.1522 | –
[2], 291.15 K, x1 = 0.799 | 0.118 | –
[2], 291.15 K, x1 = 0.8702 | 0.076 | –
[2], 291.15 K, x1 = 0.9372 | 0.0394 | –
[2], 298.15 K, x1 = 0.0471 | 0.0748 | –
[2], 298.15 K, x1 = 0.0941 | 0.13 | –
[2], 298.15 K, x1 = 0.1606 | 0.1769 | –
[2], 298.15 K, x1 = 0.2273 | 0.2079 | –
[2], 298.15 K, x1 = 0.2903 | 0.228 | –
[2], 298.15 K, x1 = 0.3523 | 0.238 | –
[2], 298.15 K, x1 = 0.4102 | 0.24 | –
[2], 298.15 K, x1 = 0.4611 | 0.2361 | –
[2], 298.15 K, x1 = 0.5095 | 0.2292 | –
[2], 298.15 K, x1 = 0.5166 | 0.2254 | –
[2], 298.15 K, x1 = 0.5673 | 0.2163 | –
[2], 298.15 K, x1 = 0.6237 | 0.202 | –
[2], 298.15 K, x1 = 0.6862 | 0.1773 | –
[2], 298.15 K, x1 = 0.754 | 0.1511 | –
[2], 298.15 K, x1 = 0.8174 | 0.1202 | –
[2], 298.15 K, x1 = 0.8803 | 0.0815 | –
[2], 298.15 K, x1 = 0.9477 | 0.0402 | –
